One assay has as its target HLA class I molecule. As to the kind of experiment: HLA class I peptide binding affinity assay (inhibition of 125I-radiolabeled probe peptide binding to purified HLA). Further details: species or system human. Conditions: read-out: Observed Affinity (IC50, (nM)). As for the experimental part:
Epstein-Barr virus (EBV)-transformed homozygous cell lines, fibroblasts, CIR, or 721.22 transfectants are used as sources of HLA class I molecules. […] HLA molecules are purified from lysates by affinity chromatography. The lysates are passed over a column of Sepharose CL-4B beads coupled to an appropriate antibody. […] A 1/25 volume of 2.0 M Tris, pH 6.8, is added to the eluate to reduce the pH to […]. Eluates are then concentrated by centrifugation in Centriprep 30 concentrators (Amicon, Beverly, MA). Protein content is evaluated by a BCA protein assay (Pierce Chemical Co., Rockford, IL) and confirmed by SDS-PAGE.
Following incubation, MHC-peptide complexes are separated from free peptide by gel filtration on 7.8 mm×15 cm TSK200 columns (TosoHaas 16215, Montgomeryville, PA). Because the large size of the radiolabeled peptide used for the DRB1*1501 (DR2w2(31) assay makes separation of bound from unbound peaks more difficult under these conditions, all DRB1*1501 (DR2w2(31) assays were performed using a 7.8 mm×30 cm TSK2000 column eluted at 0.6 mLs/min. The eluate from the TSK columns is passed through a Beckman 170 radioisotope detector, and radioactivity is plotted and integrated using a Hewlett-Packard 3396A integrator, and the fraction of peptide bound is determined.
Radiolabeled peptides are iodinated using the chloramine-T method. […] All subsequent inhibition and direct binding assays are performed using these HLA concentrations.
Since under these conditions [label]<[HLA] and IC50≥[HLA], the measured IC50 values are reasonable approximations of the true KD values. […] For database purposes, and inter-experiment comparisons, relative binding values are compiled. These values can subsequently be converted back into IC50 nM values by dividing the IC50 nM of the positive controls for inhibition by the relative binding of the peptide of interest.
HLA binding assays were used to evaluate either the affinity of interaction of a given epitope with a selected HLA molecule or the stability.
The measurements are plotted against the predicted affinity in FIG. 1.

The test system of the next assay is HLA Class I molecules. In words: HLA class I binding stability assay (pMHC-I complex dissociation, 125I-labeled β2m, scintillation counts). Details: species or system human. Conditions: allele A02.01; 37° C.

The results in this text go back to patent US20230414735A1, “NEOANTIGENS AND METHODS OF THEIR USE” (priority 2016, published 2023).

Where two headings read alike, the source gives them in different places. Where no end group is shown, it is not given here.

Protocol for HLA Class I molecules: These reactions are carried out in streptavidin coated microplates to bind th biotinylated MHC-I heavy chains to the surface and allow measurement of radiolabeled light chain to monitor complex formation. Dissociation is initiated by addition of higher concentations of unlabled light-chain and incubation at 37° C. Stability is defined as the length of time in hours it takes for half of the complexes to dissociate, as measured by scintillation counts

In the case of `CC[C@H](C)[C@H](NC(=O)[C@H](CC(C)C)NC(=O)[C@H](CCC(N)=O)NC(=O)[C@@H](NC(=O)[C@@H](NC(=O)[C@H](CO)NC(=O)[C@@H](NC(=O)[C@H](CC(C)C)NC(=O)[C@@H](N)CS)[C@@H](C)O)[C@@H](C)O)C(C)C)C(=O)N[C@@H](CCSC)C(=O)O`, the half-maximal inhibitory concentration (IC50) at HLA class I molecule (allele A01.01) stood at 11000 nM; at HLA class I molecule (allele A02.01), 716 nM.
In the case of `CC(C)C[C@H](NC(=O)[C@H](CO)NC(=O)[C@H](CCCCN)NC(=O)[C@H](CC(C)C)NC(=O)[C@@H](NC(=O)[C@H](CO)NC(=O)[C@@H]1CCCN1C(=O)[C@H](CC(C)C)NC(=O)[C@@H](N)Cc1ccccc1)[C@@H](C)O)C(=O)O`, the figures for the IC50 at HLA class I molecule (allele A02.01) and at HLA class I molecule (allele B08.01) were 21 nM and 1970 nM, respectively.
For `CC[C@H](C)[C@H](N)C(=O)N[C@H](C(=O)N[C@H](C(=O)N[C@@H](CCC(=O)O)C(=O)N[C@@H](Cc1ccccc1)C(=O)N[C@@H](CCSC)C(=O)N[C@H](C(=O)N[C@@H](Cc1ccc(O)cc1)C(=O)NCC(=O)N[C@@H](CC(N)=O)C(=O)O)[C@@H](C)O)[C@@H](C)CC)[C@@H](C)CC`, the IC50 at HLA class I molecule (allele A02.01) was 1550 nM.
Turning to `CC[C@H](C)[C@H](N)C(=O)N[C@@H](CC(C)C)C(=O)N[C@@H](CC(=O)O)C(=O)N[C@H](C(=O)N[C@@H](C)C(=O)NCC(=O)N[C@@H](CCCCN)C(=O)N[C@@H](CCC(=O)O)C(=O)N[C@@H](CCC(=O)O)C(=O)N[C@@H](Cc1ccc(O)cc1)C(=O)O)[C@@H](C)O`, on HLA class I molecule (allele A01.01), the IC50 was 14.3 nM.
As for `CC[C@H](C)[C@H](NC(=O)[C@@H]1CCCN1C(=O)[C@H](CC(C)C)NC(=O)[C@@H](N)CC(C)C)C(=O)N1CCC[C@H]1C(=O)N1CCC[C@H]1C(=O)N[C@@H](CC(C)C)C(=O)N[C@@H](CO)C(=O)N1CCC[C@H]1C(=O)N[C@@H](CO)C(=O)O`, the concentration for half-maximal inhibition (IC50) at HLA class I molecule (allele A02.01) stood at 449 nM.
For the compound `CSCC[C@H](N)C(=O)N[C@@H](C)C(=O)N[C@@H](CC(C)C)C(=O)N[C@@H](CC(N)=O)C(=O)N[C@@H](CO)C(=O)N[C@@H](CCC(=O)O)C(=O)N[C@@H](C)C(=O)N[C@@H](CC(C)C)C(=O)N[C@@H](CO)C(=O)N[C@H](C(=O)O)C(C)C`, in the assay with HLA Class I molecules, the “Stability (T1/2 (h))” value is listed as 0.7 h.
Take `CSCC[C@H](N)C(=O)N[C@@H](C)C(=O)N[C@@H](CC(N)=O)C(=O)NCC(=O)N[C@@H](CO)C(=O)N[C@@H](CC(C)C)C(=O)N[C@@H](CC(C)C)C(=O)N[C@@H](CC(N)=O)C(=O)N[C@@H](Cc1ccc(O)cc1)C(=O)O`: the IC50 at HLA class I molecule (allele A01.01) came out at 439 nM.
On to `CC(C)C[C@H](NC(=O)[C@@H](N)CCCNC(=N)N)C(=O)N[C@@H](CO)C(=O)N[C@@H](CO)C(=O)N[C@@H](CS)C(=O)N[C@H](C(=O)N1CCC[C@H]1C(=O)N[C@H](C(=O)N[C@@H](C)C(=O)O)C(C)C)C(C)C`, for which the “Stability (T1/2 (h))” value with HLA Class I molecules was determined as 18.7 h.
Turning to AFSGEYIPTV, the IC50 on HLA class I molecule (allele A02.01) was determined as 781 nM.
As to AIQPVLWTT, the half-inhibitory concentration (IC50) at HLA class I molecule (allele A02.01) is 8.1 nM.
The same measure, in the same setting: the same measure for ALAPTLTHM: 59 nM; for ALAPTLTHML: 39 nM.
As for ALEEKKGNYV, the IC50 on HLA class I molecule (allele A02.01) was determined as 141 nM.
The same measure, in the same setting: the result for ALFFFFFET reads 471 nM; that for ALMSAMTTS, 139 nM; that for ALQPLQPHA, 604 nM.
Turning to ALWECSLPQA, on HLA class I molecule (allele A02.01), the IC50 turned out to be 9 nM.
AMTTSSSQK: on HLA class I molecule (Allele A11.01), the half-inhibitory concentration (IC50) worked out at 162 nM.
For the compound AQAGVQWRSL, the half-maximal inhibitory concentration (IC50) on HLA class I molecule (allele A02.01) was determined as 670 nM.
For the compound CLSFLSSWDY, the concentration for half-maximal inhibition (IC50) on HLA class I molecule (allele A01.01) is 987 nM.
With FALCGFWQI, the IC50 on HLA class I molecule (allele A02.01) was 0.4 nM.
Still for that read-out and setting: the result for FELLPIPPL reads 553 nM.
On to FELLSTPPL, for which the half-inhibitory concentration (IC50) on HLA class I molecule (allele A02.01) came to 225 nM; at HLA class I molecule (allele B08.01) it was 3180 nM.
As for FFFETKSCSV, the IC50 at HLA class I molecule (allele A02.01) amounted to 61.2 nM.
On to FFFSVIFST, for which the IC50 at HLA class I molecule (allele A02.01) is 4560 nM.
For FILMELMAGG, the half-inhibitory concentration (IC50) on HLA class I molecule (allele A02.01) is 1580 nM.
The same measure, in the same setting: the same measure for FKLFSCLSFL: 663 nM.
Regarding FLLALWECS, the IC50 on HLA class I molecule (allele A02.01) is 93.2 nM.
The same measure, in the same setting: the result for FLSSWDYRRM reads 324 nM; that for FQNGKMALS [FQNGKMALS], 3280 nM; that for FVMSDTTYKI, 62.4 nM.
On the same count and under the same terms, the same measure for GLSISCTTL: 114 nM; for GMNQRPILT: 3030 nM.
On the same count and under the same terms, the result for GMNWRPILT reads 1130 nM.
With GSNEVTTRY, the 50% inhibitory concentration (IC50) on HLA class I molecule (allele A01.01) came out at 606 nM.
For the compound HMNIANLLGA, at HLA class I molecule (allele A02.01), the 50% inhibitory concentration (IC50) came out at 430 nM.
Same read-out and setting: the same measure for IANLLGACTI: 6420 nM.
For IIEFMTYGNL, the IC50 at HLA class I molecule (allele A02.01) was determined as 9700 nM.
Same read-out and setting: the same measure for IIEYCFYGDL: 1090 nM; for IIIEFMTYG: 779 nM.
With ILDTAGHEEY, the IC50 at HLA class I molecule (allele A01.01) worked out at 64.2 nM.
Same read-out and setting: the result for ILDTAGLEEY reads 8.6 nM.
The same measure, in the same setting: the same measure for ILDTAGREEY: 7 nM.
For ILIRKAMTV, the half-maximal inhibitory concentration (IC50) at HLA class I molecule (allele A02.01) amounted to 19.5 nM.
Same read-out and setting: the same measure for ILLPEDTPPL: 6.7 nM.
On the same count and under the same terms, the result for ILMELMAGGD reads 3450 nM; that for IMSLWGLVS, 7320 nM.
Regarding ITAFFFCWI, the half-maximal inhibitory concentration (IC50) on HLA class I molecule (allele A02.01) came out at 7490 nM.
In the case of ITAFFLLDI, the concentration for half-maximal inhibition (IC50) at HLA class I molecule (allele A02.01) was determined as 78.7 nM.
The same measure, in the same setting: the same measure for IVSRTLLLV: 12.7 nM.
Take KISNWSLKK: the IC50 on HLA class I molecule (Allele A11.01) was found to be 9.8 nM.
For KITEQEKDFL, the IC50 on HLA class I molecule (allele A02.01) turned out to be 1400 nM.
For KKLMLLRLNL, the IC50 at HLA class I molecule (allele A02.01) was found to be 289 nM.
On the same count and under the same terms, the same measure for KLFSCLSFLS: 0.6 nM; for KQWSSVTSL: 26.5 nM; for KSLVRLSSCV: 280 nM.
Consider LATEKSRWS, for which the 50% inhibitory concentration (IC50) worked out at 61000 nM at HLA class I molecule (allele A02.01) and 37000 nM on HLA class I molecule (allele B08.01).
The like results for LATEKSRWSG were, in that order, 23300 nM and 46600 nM.
